Source: patent US6784203B1, “Cytokine production inhibitors” (Cubist Pharmaceuticals, Inc., priority 2001, dated 2004)

Columns and labels:
[1] = system: TNF-α; assay: TNF-α release from U937 cells (LPS-induced, DELFIA); assay type: cell-based; settings: Homo sapiens, U-937; for IC50: PMA-pretreated U937 cells, 1 ng/ml LPS, 18 hours, read-out: IC50 LPS-induced TNF production in U937 cells
Description: The effect of the compounds of the invention on TNF-α release was investigated using a known method (Lozanski, G. et al., (1992), J. Rheumatol; 19, 921-26).
The human histolytic lymphoma U937 cell line was obtained from a commercial source (ECACC, Salisbury, UK) and maintained in RPMI 1640 medium supplemented with 2 mM L-glutamine and 5% fetal bovine serum. The cells were pretreated with 25 ng/ml PMA for six hours and then exposed to dose ranges of the compound to be tested followed by the addition of 1 ng/ml LPS.
After 18 hours incubation at 37° C. with 5% CO2 the cell culture supernatants were harvested and stored at −70° C., until required for determination of TNF-α secretion by Dissociation Enhanced Lanthanide Fluorescence Immuno Assay (DELFIA). The effect of the compounds on cell cytotoxicity was measured using the tetrazolium salt, XTT (2,3-bis[2-methoxy-4-nitro-5-sulphophenyl]-2H-tetrazolium-5-carboxanilide salt) and effects on protein synthesis were determined by investigation of [^3H] Leucine uptake.

[2] = system: IL-1β; assay: IL-1β release from human monocytes (LPS-induced, ELISA); assay type: cell-based; settings: Monocyte; for IC50: human monocytes, 1 ng/ml LPS, 18 hours, read-out: IC50 LPS-induced IL-β production (monocytes)
Source text: The effect of the compounds of the invention on IL-Iβ release was investigated using a known method (Bakouche, O. et al., (1992), J. Immunol: 148, 84-91). Human monocytes were purified by elutriation from Buffy coats obtained from normal healthy donors after the separation of peripheral blood mononuclear cells (PBMC) on Lymphoprep. The freshly isolated monocytes were suspended in RPMI 1640 supplemented with 5% FBS and exposed to dose ranges of the compound to be tested followed by the addition of 1 ng/ml LPS. Cells were incubated for 18 hours at 37° C. with 5% CO2 and the cell culture supernatants harvested and stored at −70° C. Effects on the production of IL-1β were determined using an ELISA.

IC50 [1] [nM]	IC50 [2] [nM]	SMILES	inhibition at 0.01 µM ([1]; concentration 0.01 μM) [%]	inhibition at 0.04 µM ([1]; concentration 0.04 μM) [%]	inhibition at 0.17 µM ([1]; concentration 0.17 μM) [%]	inhibition at 0.7 µM ([1]; concentration 0.7 μM) [%]	inhibition at 2.8 µM ([1]; concentration 2.8 μM) [%]	inhibition at 0.044 µM ([2]; Homo sapiens, concentration 0.044 μM) [%]	inhibition at 0.22 µM ([2]; Homo sapiens, concentration 0.22 μM) [%]	inhibition at 1.1 µM ([2]; Homo sapiens, concentration 1.1 μM) [%]	inhibition at 5.5 µM ([2]; Homo sapiens, concentration 5.5 μM) [%]	inhibition at 0.12 µM ([1]; concentration 0.12 μM) [%]	inhibition at 0.5 µM ([1]; concentration 0.5 μM) [%]	inhibition at 2 µM ([1]; concentration 2 μM) [%]	inhibition at 8 µM ([1]; concentration 8 μM) [%]	inhibition at 0.5 µM ([2]; Homo sapiens, concentration 0.5 μM) [%]	inhibition at 2 µM ([2]; Homo sapiens, concentration 2 μM) [%]	inhibition at 20 µM ([2]; Homo sapiens, concentration 20 μM) [%]
80	190	C/C=C/[C@@H]1OC(=O)C=C[C@@H]1C(=O)/C=C/C(C)=C/[C@@H](C)CCCCCC [R in formula (I) is CH3, 3-((5S,6S)-5,6-dihydro-5-((6S)-4,6-dimethyldodeca-2E,4E-dienoyl)-2H-pyran-2-on-6-yl)-prop-2E-ene]	0.85	20	61	90	99	23	41	72	88							
2000	2000	CCCCCC[C@H](C)/C=C(C)/C=C/C(=O)[C@H]1C=CC(=O)O[C@H]1/C=C/C(=O)O [R in formula (I) is CO2H, 3-((5S,6S)-5,6-dihydro-5-((6S)-4,6-dimethyldodeca-2E,4E-dienoyl)-2H-pyran-2-on-6-yl)-prop-2E-enoic acid]										47	77	100	107	14	81.5	99
